# Results published in patent publication US20100081632A1, “High-content and high throughput assays for identification of lipid-regulating pathways, and novel therapeutic agents for lipid disorders” (Odyssey Thera, Inc., priority 2008, published 2010).
# Experiments:
# PCSK9/LDLR complex = assay: PCSK9/LDLR protein complementation assay (PCA) in transfected HEK293 cells; type: cell-based, human
# Description: In one of the embodiments of the invention, the cell-based assay consists of transfected cDNAs encoding full-length PCSK9 and LDL receptor, each sequence linked in-frame to rationally designed fragments of a variant of green fluorescent protein. These two plasmid constructs were co-expressed in human HEK cells plated in 384-well poly-lysine coated plates. After 24-48 hours of incubation, drugs (or vehicle controls) were added to the media, and the existence and localization of PCSK9/LDL receptor complexes was quantified on an Opera automated confocal fluorescence microscopy platform (Perkin Elmer). Images were subjected to automated image analysis, and results quantified and subjected to statistical analysis.
# HEK 293T cells were seeded in normal growth media containing DMEM and 10% FBS at 1.5×10^4 in PDL-coated 96-well plates 24 hours prior to transfection. Cells were transfected with 50 ng of each construct DNA per well with Fugene 6, using conditions recommended by the manufacturer. Cells were allowed to express the construct pairs for 24- or 48 h, then the cells were simultaneously fixed and stained with either a 1:300 dilution of Hoescht 33342 (Molecular Probes, Eugene, Oreg.) or a 1:1000 dilution of Draq5 (Biostatus, Shepshed, Leicestershire, U.K.) in 4% formaldehyde for 15 minutes at room temperature. The cells were washed to remove fixative, and overlaid with a small volume of Hank's Buffered Salt Solution. Images were acquired on a Discovery-1 (Molecular Devices) epifluorescence microscope using the 20× objective, and DAPI and FITC filter sets. (with excitation at 350 and 488 nm wave lengths) or on an Opera (Perkin Elmer) confocal microscope using the 20× water objective with the following excitation and emission settings: Ex 488 nm/Em 535 nm (YFP) and Ex 635 nm/Em 640 nm (Draq5).
# To test for in vitro PCSK9 function and activity, we developed a protein complementation assay (PCA) with PCSK9-IFP2 and the LDL-IFP1 receptor (PCSK9/LDLR). Expression of wild type PCSK9-IFP2 in transfected HEK293 cells was confirmed by Western blot using an antibody against YFP (FIG. 2). Cotranfection of HEK cells with increasing ratios of PCSK9-IFP2 and LDLR-IFP1 DNA constructs results in increased PCA signal (FIG. 3) but not when each construct is expressed alone. The intracellular localization of the wild-type PCSK9-IFP2/LDLR-IFP1 PCA interaction is similar to the known localization of wild type PCSK9 in the endoplasmic reticulum (ER) and post-ER compartments in various cell types (20, 21). The PCA signal for the PCSK9-IFP2/LDLR-IFP1 pair appears to be localized to multiple intracellular trafficking sites including the ER, endosomes and the cell surface.
# In order to test the viability of using the PCSK9-IFP2/LDLR-IFP1 PCA as a drug discovery tool, we tested a drug plate containing 50 known drugs at 3 doses in the assay (Table 10) as well as several protein kinase inhibitors (representative compounds are depicted in Table 11). […] We observed the following effects of known compounds on the PCSK9/LDLR complex:
# A collection of small molecular weight compounds was screened. […] To expand on this observation, we characterized the effects of a larger panel of kinase inhibitors on the PCSK9/LDLr complex. 47 compounds representing a broad range of known receptor tyrosine and serine-threonine kinase inhibitors were assessed (table 2). A subset was identified that had inhibitory effects on the PCSK9/LDLr complex (degree of assay inhibition relative to control is indicated by “% control”, Table 2).
# HepG2 cells = assay: LDL uptake in HepG2 cells (human LDL conjugated to DyLight 549); type: cell-based; details: for x-fold increase (hepatic LDL uptake): HepG2; for % Control (Table 5, titled LDL uptake in Hepg2 cells): values repeat Table 2; for effect on LDL uptake (in words): HepG2, 10 μM
# Text: The assay uses human LDL conjugated to DyLight™ 549 as a fluorescent probe for detection of LDL uptake into HepG2 cells.
# We assessED whether compounds that inhibit the PCSK9/LDLr assay would have activity on LDL uptake and metabolism in a relevant cell type. PCSK9 is thought to be a negative regulator of LDLr. Thus, we predicted that compounds inhibiting the PCSK9 PCA signal would increase LDL receptor expression and LDL uptake. An assay using human LDL conjugated to DyLight™ 549 as a fluorescent probe for detection of LDL uptake into cultured human hepatocytes. A separate assay, using an LDL receptor-specific polyclonal antibody and a DyLight™ 488-conjugated secondary antibody, was also performed to localize LDL receptors
# Quantitation of the increased LDL uptake of these and other kinase inhibitors targeting Akt, mTOR, p38, GSK3 and VEGF is shown in Table 4.
Compound,x-fold increase (LDL uptake in Hepg2 cells) (HepG2 cells; dose 3 μM) [x-fold],x-fold increase (hepatic LDL uptake) (HepG2 cells; dose 3 µM) [x-fold],% Control (PCSK9/LDLr PCA) (PCSK9/LDLR complex; dose 10 μM) [%],effect on LDL uptake (in words) (HepG2 cells),x-fold increase (LDL uptake in Hepg2 cells) (HepG2 cells; dose 10 μM) [x-fold],x-fold increase (hepatic LDL uptake) (HepG2 cells; dose 10 µM) [x-fold],"% Control (Table 5, titled LDL uptake in Hepg2 cells) (HepG2 cells; dose 10 μM) [%]",% Control (PCSK9/LDLr PCA) (PCSK9/LDLR complex; dose 3 μM) [%],other results
COc1cc2c(Nc3ccc(Br)cc3F)ncnc2cc1OCC1CCN(C)CC1 [Vandetanib],2.0,2.0,,,,,,,% Control (PCSK9/LDLr PCA) (PCSK9/LDLR complex; dose 100 μM): 39%; x-fold increase (LDL uptake in Hepg2 cells) (HepG2 cells; dose 1 μM): 1.5 x-fold; x-fold increase (hepatic LDL uptake) (HepG2 cells; dose 1 µM): 1.5 x-fold
CC(C)[C@H](CO)Nc1nc(Nc2cccc(Cl)c2)c2ncn(C(C)C)c2n1 [Purvalanol A],,,,,,,,,"% Control (PCSK9/LDLr PCA) (PCSK9/LDLR complex; dose 15 μM): 52%; % Control (Table 5, titled LDL uptake in Hepg2 cells) (HepG2 cells; dose 15 μM): 52%"
Cc1ccc(NC(=O)c2ccc(CN3CCN(C)CC3)cc2)cc1Nc1nccc(-c2cccnc2)n1 [Imatinib],2.4,2.4,55,dramatic increase in LDL uptake,5.4,5.4,55,,effect on formation of PCSK9/LDLR complexes / PCA signal (in words) (PCSK9/LDLR complex): inhibit the formation of PCSK9/LDLR complexes
Indirubin-3′-Monoxime,,,64,,,,64,,
CNC(=O)c1cc(Oc2ccc(NC(=O)Nc3ccc(Cl)c(C(F)(F)F)c3)cc2)ccn1 [Sorafenib],,,58,,,,58,57,"% Control (Table 5, titled LDL uptake in Hepg2 cells) (HepG2 cells; dose 3 μM): 57%"
"Cc1ccc([N+](=O)[O-])cc1S(=O)(=O)N(C)/N=C/c1cnc2ccc(Br)cn12 [PI 3-Kalpha Inhibitor VIII, N-((1E)-(6-Bromoimidazo[1,2-a]pyridin-3-yl)methylene)-Nprime-methyl-Ndoubleprime-(2-methyl-5-nitrobenzene)sulfonohydrazide]",,,29,,,,,39,"% Control (PCSK9/LDLr PCA) (PCSK9/LDLR complex; dose 1 μM): 44%; % Control (Table 5, titled LDL uptake in Hepg2 cells) (HepG2 cells; dose 1 μM): 44%; % Control (Table 5, titled LDL uptake in Hepg2 cells) (HepG2 cells; dose 3 μM): 39%"
CCOc1cc2ncc(C#N)c(Nc3ccc(OCc4ccccn4)c(Cl)c3)c2cc1NC(=O)/C=C/CN(C)C [Neratinib],,,,dramatic increase in LDL uptake,2.2,2.2,,61,% Control (PCSK9/LDLr PCA) (PCSK9/LDLR complex; dose 1 μM): 64%
"COc1cc2ncnc(Nc3ccc(Oc4ccccc4)cc3)c2cc1OC [Src Kinase Inhibitor I, 4-(4-prime-Phenoxyanilino)-6,7-dimethoxyquinazoline]",2.3,2.3,,dramatic increase in LDL uptake,5.1,5.1,,,"% Control (PCSK9/LDLr PCA) (PCSK9/LDLR complex; dose 12.5 μM): 50%; % Control (Table 5, titled LDL uptake in Hepg2 cells) (HepG2 cells; dose 12.5 μM): 50%"
